The ED50 is the dose that gives a 50% effect, or the effect in half of the subjects. A lower ED50 goes with an effect at a small dose. As usually defined, the IC50 is the concentration at which inhibition is half-maximal. A high value points to weaker potency.

This passage reports ED50, IC50 and Ataxia results from ChEMBL document CHEMBL1125353, “Structure-activity studies on benzhydrol-containing nipecotic acid and guvacine derivatives as potent, orally-active inhibitors of GABA uptake” (J Med Chem, 1992).

One assay has as its system Mus musculus. In words: Potency inhibiting tonic extensor seizures from low-intensity corneal electroshock in mice following peroral administration. The assay is classed as functional.
Details: not given
`Cl.O=C(O)C1=CCCN(CCOC(c2ccc(C(F)(F)F)cc2)c2ccc(C(F)(F)F)cc2)C1`: the 50% effective dose (ED50) was 1 mg/kg.

Another assay deals with Mus musculus. Kind of assay: Potency of the inhibiting ataxia in mice following peroral administration. The assay is classed as functional.
Details: not given
In turn, `Cl.O=C(O)C1=CCCN(CCOC(c2ccc(C(F)(F)F)cc2)c2ccc(C(F)(F)F)cc2)C1` had an ED50 of 64 mg/kg.

The species named for another assay is Rattus norvegicus. In words: In vitro Inhibitory activity against GABA uptake. The assay is classed as functional.
Details: not given
The compound `O=C(O)[C@@H]1CCCNC1` [(R)-NIPECOTIC ACID] returned an IC50 of 5.2 µM.

A further assay is filed under the species Rattus norvegicus. In words: In vitro inhibition of [3H]GABA uptake in rat Hippocampal slices. The assay is classed as functional, organism-based.
Details: not given
For the compound `O=C(O)[C@H]1CCCN(CCOC(c2ccc(Cl)cc2)c2ccc(Cl)cc2)C1` (stereo in doubt; 36), 14 µM corresponded to half-maximal inhibition (IC50).
In the case of `O=C(O)[C@H]1CCCN(CCOC(c2ccc(Cl)cc2)c2ccc(Cl)cc2)C1` (stereo in doubt; 37), 0.18 µM corresponded to half-maximal inhibition (IC50).

Staying with this assay, now noted: Rattus norvegicus, 3 h.
Regarding `O=C(O)C1CCCN(CCCOC(c2ccccc2)c2ccccc2)C1` (stereo not given), the IC50 turned out to be 12 µM.
`COC(=O)C1=CCCN(CCOC(c2ccc(C(F)(F)F)cc2)c2ccc(C(F)(F)F)cc2)C1` gave an IC50 of 40 µM.
Consider `O=C(O)C1CCCN(CCOC(c2ccc(Cl)cc2)c2ccco2)C1` (stereo not given), for which the midpoint of inhibition, the IC50, lay at 8.7 µM.
`O=C(O)CC1CCN(CCOC(c2ccc(Cl)cc2)c2ccc(Cl)cc2)C1` (stereo not given) came in with an IC50 of 2.7 µM.
Compound `O=C(O)C1CCN(CCOC(c2ccc(Cl)cc2)c2ccc(Cl)cc2)CC1` registered a half-inhibitory concentration (IC50) of more than 50 µM.
`O=C1CCCN1CCOC(c1ccc(Cl)cc1)c1ccc(Cl)cc1`: the IC50 stood at 26 µM.
Turning to `O=C(O)C1CCCN(CCOC(c2ccc(Cl)cc2)c2cccs2)C1` (stereo not given), the IC50 was 3.6 µM.
With `O=C(O)C1CCCN(CCC=C(c2ccccc2)c2ccccc2)C1` (stereo not given), the IC50 amounted to 10 µM.
In the case of `O=C(O)C1CCCN(CCCOC(c2ccccc2)(c2ccccc2)c2ccccc2)C1` (stereo not given), the midpoint of inhibition, the IC50, lay at 7.9 µM.
In turn, `O=C(O)C1CCCN(CCOC(c2ccc(Cl)cc2)c2ccc(Cl)c(C(F)(F)F)c2)C1` (stereo not given) returned a half-inhibitory concentration (IC50) of 1.4 µM.
`COC(=O)C1CCCN(CCOC(c2ccc(Cl)cc2)c2ccc(Cl)cc2)C1` (stereo not given) yielded a half-inhibitory concentration (IC50) of 0.7 µM.
Same read-out and setting: to `CN(C)C(=O)C1CCCN(CCOC(c2ccc(Cl)cc2)c2ccc(Cl)cc2)C1` (stereo not given) belongs 25 µM.
Consider `NC(=O)C1CCCN(CCOC(c2ccc(Cl)cc2)c2ccc(Cl)cc2)C1` (stereo not given), for which the half-maximal inhibitory concentration (IC50) stood at 35 µM.
As to `O=C(O)C1CCCN(CCOC(c2ccccc2)c2ccc(Cl)cc2)C1` (stereo not given), half-maximal inhibition (IC50) was put at 20 µM.
Still for that read-out and setting: to `O=C(O)C1CCCN(CCOC(c2ccccc2)c2ccc(Cl)c(Cl)c2)C1` (stereo not given) belongs 1.2 µM; to `CNC(=O)C1CCCN(CCOC(c2ccc(Cl)cc2)c2ccc(Cl)cc2)C1` (stereo not given), 40 µM; to `O=C(O)C1CCCN(CCOC(c2ccc(Cl)c(Cl)c2)C2CCCCC2)C1` (stereo not given), 1.1 µM.
Compound `Clc1ccc(C(OCCN2CCCCC2)c2ccc(Cl)cc2)cc1` displayed an IC50 of 21 µM. This IC50 lies about 19-fold higher than the previous one.
For the compound `Cl.O=C(O)C1=CCCN(CCOC(c2ccc(C(F)(F)F)cc2)c2ccc(C(F)(F)F)cc2)C1`, the 50% inhibitory concentration (IC50) was 0.34 µM.
In turn, `O=C(O)C1CCCN(CCOC(c2ccccc2)c2ccccc2)C1` (stereo not given) gave an IC50 of 3.4 µM.
For the compound `O=C(CCCN1CCCC(C(=O)O)C1)c1ccc(F)cc1` (stereo not given), the IC50 was more than 50 µM.
As for `CCOC(=O)C1CCCN(CCOC(c2ccc(Cl)cc2)c2ccc(Cl)cc2)C1` (stereo not given), the midpoint of inhibition, the IC50, lay at 11 µM.
`O=C(O)C1CCCN(CCc2oc3ccccc3c2-c2ccccc2)C1` (stereo not given): half-maximal inhibition (IC50) was put at 22 µM.
Turning to `O=C(O)[C@H]1CN(CCOC(c2ccc(Cl)cc2)c2ccc(Cl)cc2)CC[C@@H]1O`, the concentration for half-maximal inhibition (IC50) was found to be 1.2 µM.
Same read-out and setting: the figure for `Cl.O=C(O)C1CCCN(CCOC(c2ccc(Cl)cc2)c2ccc(Cl)cc2)C1` (stereo not given) is 0.41 µM; for `Cc1ccc(C(OCCN2CCCC(C(=O)O)C2)c2ccc(C)cc2)cc1` (stereo not given) it is 5.7 µM.
For `O=C(O)C1CCCN(CCOC(c2ccc(Cl)c(Cl)c2)c2ccc(Cl)c(Cl)c2)C1` (stereo not given), the IC50 came out at 2.5 µM.
In turn, `O=C(O)C1CCCN(CCC2CC2(c2ccccc2)c2ccccc2)C1` (stereo not given) returned an IC50 of more than 50 µM.
With `N#CC1CCCN(CCOC(c2ccc(Cl)cc2)c2ccc(Cl)cc2)C1` (stereo not given), the IC50 was more than 50 µM.
The compound `O=C(O)C1CCCN(CC(=O)C(c2ccccc2)c2ccccc2)C1` (stereo not given) showed a 50% inhibitory concentration (IC50) of more than 50 µM.
Compound `Cc1cc(Cl)ccc1C(OCCN1CCCC(C(=O)O)C1)c1ccc(Cl)cc1C` (stereo not given) had an IC50 of 3.2 µM. This lies in the single-digit micromolar range.
Compound `O=C(O)C1CCCN(CCOC2c3ccc(Cl)cc3CCc3cc(Cl)ccc32)C1` (stereo not given) showed an IC50 of 1.6 µM.
`O=C(O)C1CCN(CCOC(c2ccc(Cl)cc2)c2ccc(Cl)cc2)C1` (stereo not given) registered an IC50 of more than 50 µM.
In turn, `O=C(O)C1CCCN(CCSC(c2ccccc2)c2ccccc2)C1` (stereo not given) gave an IC50 of 60 µM.
As to `O=C(O)C1CCCN(CCOC(c2ccc(OC(F)(F)F)cc2)c2ccc(OC(F)(F)F)cc2)C1` (stereo not given), the IC50 came out at 0.92 µM.
`O=C(O)[C@H]1CN(CCOC(c2ccc(Cl)cc2)c2ccc(Cl)cc2)CC[C@H]1O` came in with an IC50 of 1.5 µM.
On to `O=C(O)C1CCCN(CCC(Cc2ccccc2)c2ccccc2)C1` (stereo not given), for which half-maximal inhibition (IC50) required 50 µM.
As to `O=C(O)C1CCCN(CCOC(c2ccc(C(F)(F)F)cc2)c2ccc(C(F)(F)F)cc2)C1` (stereo not given), the midpoint of inhibition, the IC50, lay at 0.71 µM.
On the same count and under the same terms, the figure for `Cl.O=C(O)C1=CCCN(CCOC(c2ccc(Cl)cc2)c2ccc(Cl)cc2)C1` is 0.41 µM.
In turn, `OCC1CCCN(CCOC(c2ccc(Cl)cc2)c2ccc(Cl)cc2)C1` (stereo not given) had an IC50 of 47 µM.
On to `CC(=O)C1CCCN(CCOC(c2ccc(Cl)cc2)c2ccc(Cl)cc2)C1` (stereo not given), for which the half-inhibitory concentration (IC50) turned out to be 22 µM.
`O=C(O)C1CCCN(CCOC(c2ccc(F)cc2)c2ccc(F)cc2)C1` (stereo not given) had an IC50 of 7.8 µM. This IC50 is about 2.8-fold lower than that of the compound before.
`O=C(O)C1CCCN(CCOC2c3ccccc3C=Cc3ccccc32)C1` (stereo not given) gave an IC50 of 2.5 µM.
`O=C(O)[C@@H]1CCCNC1` [(R)-NIPECOTIC ACID] yielded an IC50 of 5.2 µM.
In the case of `O=C(O)[C@H]1CCCNC1` [(S)-NIPECOTIC ACID], the IC50 was 55 µM.
For the compound `NC(=O)N1c2ccccc2C=Cc2ccccc21` [CARBAMAZEPINE], the 50% inhibitory concentration (IC50) is more than 50 µM.
In turn, `O=C(O)C1=CCCNC1` [GUVACINE] showed an IC50 of 7.3 µM.
In turn, `O=C1NC(=O)C(c2ccccc2)(c2ccccc2)N1` [PHENYTOIN] yielded an IC50 of more than 50 µM.
The compound `CCCC(CCC)C(=O)O` [VALPROIC ACID] returned an IC50 of more than 50 µM.

The next assay concerns the target Sodium channel alpha subunits; brain (Types I, II, III) (Rattus norvegicus, UniProt P04775+P04774+P08104). Kind of assay: Inhibition of veratridine-stimulated [14C]- guanidine influx into rat cortical slice.
Details: not given
The assay is classed as functional.
`Cl.O=C(O)C1=CCCN(CCOC(c2ccc(C(F)(F)F)cc2)c2ccc(C(F)(F)F)cc2)C1`: the IC50 was 10 µM.

For a further assay, the system named is Rattus norvegicus. Kind of assay: Anticonvulsant activity against kindled rats was determined after ip administration. The assay is classed as functional.
Details: not given
As to `Cl.O=C(O)C1CCCN(CCOC(c2ccc(Cl)cc2)c2ccc(Cl)cc2)C1` (stereo not given), it took a dose of 25 mg/kg to reach the 50% effect level (ED50).
In turn, `Cl.O=C(O)C1=CCCN(CCOC(c2ccc(Cl)cc2)c2ccc(Cl)cc2)C1` registered a 50% effective dose (ED50) of 14 mg/kg.

The species entered for the next assay is Rattus norvegicus. In words: Potency inhibiting focal seizures in rat hippocampus preventing hippocampal after discharges. The assay is classed as functional.
Details: not given
`Cl.O=C(O)C1=CCCN(CCOC(c2ccc(C(F)(F)F)cc2)c2ccc(C(F)(F)F)cc2)C1` yielded an ED50 of 2.6 mg/kg.

In the next assay the test system is Rodentia sp. Kind of assay: Potency inhibiting clonic seizures induced by GABA antagonist pentylene tetrazole(PTZ) in rodents following oral administration. The assay is classed as functional.
Details: not given
Consider `Cl.O=C(O)C1=CCCN(CCOC(c2ccc(C(F)(F)F)cc2)c2ccc(C(F)(F)F)cc2)C1`, for which it took a dose of 0.4 mg/kg to reach the 50% effect level (ED50).

The next assay concerns Rodentia sp. In words: Inhibitory potency against threshold clonic seizures induced by ip picrotoxin in rodents. The assay is classed as functional.
Details: not given
For `Cl.O=C(O)C1=CCCN(CCOC(c2ccc(C(F)(F)F)cc2)c2ccc(C(F)(F)F)cc2)C1`, the Ataxia is on record as 1.7%.
